Measurements taken from ChEMBL document CHEMBL4118267, “Access to new highly potent antileukemia, antiviral and antimalarial agents via hybridization of natural products (homo)egonol, thymoquinone and artemisinin” (Bioorg Med Chem, 2018).

Columns and labels:
Human betaherpesvirus 5 [1] = experiment: Antiviral activity against GFP-fused Human cytomegalovirus AD169 infected in primary HFF; type: functional, organism-based; details: Human betaherpesvirus 5, AD169, HFF
CCRF-CEM = experiment: Cytotoxicity against human CCRF-CEM cells assessed as reduction in cell viability after 72 hrs by resazurin dye based assay; type: functional
ADR5000 cell line [2] = experiment: Cytotoxicity against human CEM/ADR5000 cells over-expressing P-gp assessed as reduction in cell viability after 72 hrs by resazurin dye based assay; type: functional
Plasmodium falciparum [3] = experiment: Antimalarial activity against Plasmodium falciparum 3D7 infected in human erythrocytes after 72 hrs by SYBR green dye fluorescence assay; type: functional, organism-based; details: 3D7, 72 h
ADR5000 cell line [4] = experiment: Potency index, ratio of doxorubicin EC50 to compound EC50 for human CEM/ADR5000 cells over-expressing P-gp; type: functional
Human betaherpesvirus 5 [5] = experiment: Potency index, ratio of gancyclovir EC50 to compound EC50 for GFP-fused Human cytomegalovirus AD169 infected in primary HFF; type: functional
Plasmodium falciparum [6] = experiment: Potency index, ratio of artesunic acid EC50 to compound EC50 for Plasmodium falciparum 3D7 infected in human erythrocytes; type: functional
[7] = Homo sapiens, CCRF-CEM, 72 h, read-out: EC50
[8] = Homo sapiens, ADR5000, 72 h, read-out: EC50

For `Nc1nc2c(ncn2COC(CO)CO)c(=O)[nH]1` [GANCICLOVIR], which EC50 (Human betaherpesvirus 5 [1]) is on record?
Its EC50 is 2600 nM.

For `C[C@@H]1CC[C@H]2[C@@H](C)C(=O)O[C@@H]3O[C@@]4(C)CC[C@@H]1[C@]32OO4` [ARTEMISININ], which EC50 (CCRF-CEM; [7]) is on record?
Its EC50 is 36900 nM.

And the EC50 (ADR5000 cell line [2]; [8])?
Its EC50 is 26900 nM.

Which EC50 (CCRF-CEM; [7]) does the source give for `COc1cc(CC/C=N/C2=C(C)C(=O)C=C(C(C)C)C2=O)cc2cc(-c3ccc4c(c3)OCO4)oc12` here?
The EC50 was 43700 nM.

What about the EC50 (ADR5000 cell line [2]; [8]) of the same compound?
The EC50 was 17400 nM.

And the EC50 (Plasmodium falciparum [3])?
The EC50 was 1190 nM.

What about the “Ratio EC50” value (ADR5000 cell line [4]) of the same compound?
Its value is “<=104”.

`CC1=CC(=O)C(C(C)C)=CC1=O` [THYMOQUINONE] was tested. Which EC50 (CCRF-CEM; [7]) did it give?
Its EC50 is 300 nM.

What about the EC50 (ADR5000 cell line [2]; [8]) of the same compound?
The EC50 was 300 nM.

What about the EC50 (Plasmodium falciparum [3]) of the same compound?
The EC50 was over 80000 nM.

What about the EC50 (Human betaherpesvirus 5 [1]) of the same compound?
Its EC50 is over 10000 nM.

How did the EC50 (CCRF-CEM; [7]) turn out when `COc1ccc(-c2cc3cc(CCCO[C@H]4O[C@@H]5O[C@@]6(C)CC[C@H]7[C@H](C)CC[C@@H]([C@H]4C)[C@@]57OO6)cc(OC)c3o2)cc1OC` was run?
The EC50 was 72 nM.

What about the EC50 (ADR5000 cell line [2]; [8]) of the same compound?
The EC50 was 630 nM.

And the EC50 (Plasmodium falciparum [3])?
The EC50 was 6.5 nM.

And the EC50 (Human betaherpesvirus 5 [1])?
Its EC50 is 130 nM.

And the “Ratio EC50” value (ADR5000 cell line [4])?
Its value is “<=104”.

What about the “Ratio EC50” value (Human betaherpesvirus 5 [5]) of the same compound?
The value was 20.

With `COc1cc(CCCO[C@H]2O[C@@H]3O[C@@]4(C)CC[C@H]5[C@H](C)CC[C@@H]([C@H]2C)[C@@]35OO4)cc2cc(-c3ccc4c(c3)OCO4)oc12` as the compound, how does the EC50 (CCRF-CEM; [7]) read?
The EC50 was 99 nM.

What about the EC50 (ADR5000 cell line [2]; [8]) of the same compound?
Its EC50 is 400 nM.

And the EC50 (Plasmodium falciparum [3])?
The EC50 was 28.3 nM.

What about the EC50 (Human betaherpesvirus 5 [1]) of the same compound?
The EC50 was 170 nM.

And the “Ratio EC50” value (ADR5000 cell line [4])?
The value was “<=104”.

Which EC50 (CCRF-CEM; [7]) does the source give for `C[C@H]1[C@@H](O)O[C@@H]2O[C@@]3(C)CC[C@H]4[C@H](C)CC[C@@H]1[C@@]24OO3` [ARTENIMOL] here?
The EC50 was 85 nM.

What about the EC50 (ADR5000 cell line [2]; [8]) of the same compound?
The EC50 was 265 nM.

What about the EC50 (Plasmodium falciparum [3]) of the same compound?
The EC50 was 2.4 nM.

And the EC50 (Human betaherpesvirus 5 [1])?
The EC50 was over 10000 nM.

How did the EC50 (CCRF-CEM; ccrf-cem) turn out when `COc1ccc(-c2cc3cc(CCCO)cc(OC)c3o2)cc1OC` was run?
Its EC50 is “Not Active”.

And the EC50 (ADR5000 cell line [2]; adr5000)?
Its EC50 is “Not Active”.

What about the EC50 (Plasmodium falciparum [3]) of the same compound?
The EC50 was 26500 nM.

And the EC50 (Human betaherpesvirus 5 [1])?
The EC50 was 1280 nM.

How did the EC50 (CCRF-CEM; [7]) turn out when `COc1cc(CCCO)cc2cc(-c3ccc4c(c3)OCO4)oc12` [EGONOL] was run?
The EC50 was 24700 nM.

And the EC50 (ADR5000 cell line [2]; [8])?
The EC50 was 26800 nM.

What about the EC50 (Plasmodium falciparum [3]) of the same compound?
Its EC50 is 7500 nM.

And the EC50 (Human betaherpesvirus 5 [1])?
Its EC50 is 2380 nM.

How did the EC50 (Plasmodium falciparum [3]) turn out when `COc1cc(CCCOC(=O)CCCc2ccc(N(CCCl)CCCl)cc2)cc2cc(-c3ccc4c(c3)OCO4)oc12` was run?
Its EC50 is 23200 nM.

What about the EC50 (Human betaherpesvirus 5 [1]) of the same compound?
The EC50 was 2900 nM.

How did the EC50 (CCRF-CEM; [7]) turn out when `COc1cccc2c1C(=O)c1c(O)c3c(c(O)c1C2=O)C[C@@](O)(C(=O)CO)C[C@@H]3O[C@H]1C[C@H](N)[C@H](O)[C@H](C)O1` [DOXORUBICIN] was run?
The EC50 was 15 nM.

And the EC50 (ADR5000 cell line [2]; [8])?
The EC50 was 41500 nM.

For `C[C@H]1[C@H](OC(=O)CCC(=O)OCC#CCOC(=O)CCC(=O)O[C@@H]2O[C@@H]3O[C@@]4(C)CC[C@H]5[C@H](C)CC[C@@H]([C@H]2C)[C@@]35OO4)O[C@@H]2O[C@@]3(C)CC[C@H]4[C@H](C)CC[C@@H]1[C@@]24OO3`, which EC50 (Plasmodium falciparum [3]) is on record?
Its EC50 is 3.8 nM.

What about the EC50 (Human betaherpesvirus 5 [1]) of the same compound?
Its EC50 is 940 nM.

What about the “Ratio EC50” value (Plasmodium falciparum [6]) of the same compound?
Its value is 2.

What about the “Ratio EC50” value (Human betaherpesvirus 5 [5]) of the same compound?
The value was 6.

How did the EC50 (CCRF-CEM; [7]) turn out when `C[C@H]1[C@H](OC(=O)CCC(=O)O)O[C@@H]2O[C@@]3(C)CC[C@H]4[C@H](C)CC[C@@H]1[C@@]24OO3` [ARTESUNATE] was run?
The EC50 was 69 nM.

And the EC50 (ADR5000 cell line [2]; [8])?
The EC50 was 189 nM.

And the EC50 (Plasmodium falciparum [3])?
The EC50 was 9.7 nM.

And the EC50 (Human betaherpesvirus 5 [1])?
The EC50 was 5410 nM.

`COc1cc(CCCOC(=O)C[C@H]2O[C@@H]3O[C@@]4(C)CC[C@H]5[C@H](C)CC[C@@H]([C@H]2C)[C@@]35OO4)cc2cc(-c3ccc4c(c3)OCO4)oc12` was tested. Which EC50 (CCRF-CEM; [7]) did it give?
Its EC50 is 568 nM.

What about the EC50 (ADR5000 cell line [2]; [8]) of the same compound?
The EC50 was 582 nM.

What about the EC50 (Plasmodium falciparum [3]) of the same compound?
The EC50 was 13.3 nM.

What about the EC50 (Human betaherpesvirus 5 [1]) of the same compound?
Its EC50 is 240 nM.

What about the “Ratio EC50” value (ADR5000 cell line [4]) of the same compound?
Its value is “<=104”.

How did the EC50 (Plasmodium falciparum [3]) turn out when `CCN(CC)CCCC(C)Nc1ccnc2cc(Cl)ccc12` (stereo unspecified) [CHLOROQUINE] was run?
Its EC50 is 9.8 nM.

What does the source list for `COc1cc(CCCOC(=O)CCC(=O)O[C@@H]2O[C@@H]3O[C@@]4(C)CC[C@H]5[C@H](C)CC[C@@H]([C@H]2C)[C@@]35OO4)cc2cc(-c3ccc4c(c3)OCO4)oc12`?
EC50 (CCRF-CEM; [7]): 180 nM; EC50 (ADR5000 cell line [2]; [8]): 1120 nM; EC50 (Human betaherpesvirus 5 [1]): 870 nM; Ratio EC50 (ADR5000 cell line [4]): <=104
